Reference: article PMC5213647, “Honokiol as a specific collagen receptor glycoprotein VI antagonist on human platelets: Functional ex vivo and in vivo studies” (Scientific Reports, 2017)

Target: T1, collagen receptor glycoprotein VI (GP VI) (Homo sapiens, UniProt Q9HCN6)
T1 construct: gene GP6; native full-length receptor, captured from total human platelet lysate by immobilised anti-GP VI mAb on SPR chip; described as 60-65 kDa type I transmembrane glycoprotein
T1 sequence (Q9HCN6 21-339): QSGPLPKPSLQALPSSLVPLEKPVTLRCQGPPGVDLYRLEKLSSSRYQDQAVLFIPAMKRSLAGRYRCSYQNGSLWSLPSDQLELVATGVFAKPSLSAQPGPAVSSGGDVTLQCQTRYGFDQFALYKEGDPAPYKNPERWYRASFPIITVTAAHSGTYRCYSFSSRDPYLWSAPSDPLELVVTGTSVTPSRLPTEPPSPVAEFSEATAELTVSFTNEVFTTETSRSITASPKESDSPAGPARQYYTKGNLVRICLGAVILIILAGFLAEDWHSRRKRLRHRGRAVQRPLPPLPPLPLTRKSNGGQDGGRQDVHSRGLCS
Assay: SPR (ProteOn XPR36), GP VI captured by immobilised anti-GP VI mAb, kinetic […] Langmuir fit
Assay type: binding
Conditions: PBS with 0.005% Tween 20, pH 7.4, 25 °C; native GP VI captured from platelet lysate; analyte only 10 and 100 μM

C=CCc1ccc(O)c(-c2ccc(O)c(CC=C)c2)c1 [Honokiol]
Kd: 289 µM
